Test results reported in ChEMBL document CHEMBL1201862, “PubChem BioAssay data set” (2004).
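The compound was tested at five concentrations on cells cultured in 96-well plates, with a 48-hour exposure period. GI50 is the concentration that inhibits growth by half.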 The source made the active and inactive calls. No stated cut-off is given here; in the data, active = GI50 up to about 1.1 µM and inactive = higher.

How the values were obtained:
Assay in all cases: DTP human tumour cell line panel, 48 h
[1] = test system: DMS-273
[2] = test system: KM12
[3] = test system: HCC 2998
[4] = test system: ACHN
[5] = test system: U-251
[6] = test system: OVCAR-3
[7] = test system: OVCAR-8
[8] = test system: NCI-H23
[9] = test system: HT-29
[10] = test system: SN12C
[11] = test system: K562
[12] = test system: SF-539
[13] = test system: HOP-92
[14] = test system: A549
[15] = test system: IGROV-1
[16] = test system: SNB-75
[17] = test system: RPMI-8226

Compound: O=C1C=CC(=O)c2nc3c(cc21)CCC3
- GI50 [1]: 20.3 µM (inactive)
- GI50 [2]: > 100 µM (inactive)
- GI50 [3]: > 100 µM (inactive)
- GI50 [4]: 18.8 µM (inactive)
- GI50 [5]: 78.5 µM (inactive)
- GI50 [6]: 17.5 µM (inactive)
- GI50 [7]: 15.2 µM (inactive)
- GI50 [8]: 25 µM (inactive)
- GI50 [9]: 45.9 µM (inactive)
- GI50 [10]: 19.1 µM (inactive)
- GI50 [11]: 16.9 µM (inactive)
- GI50 [12]: > 10 µM (inactive)
- GI50 [13]: 19.5 µM (inactive)
- GI50 [14]: 87.3 µM (inactive)
- GI50 [15]: 17.8 µM (inactive)
- GI50 [16]: 67.5 µM (inactive)

Compound: CN(C)CCNC(=O)c1cccc2ccc(-c3ccncc3)nc12
- GI50 [1]: 1.1 µM (active)
- GI50 [2]: 3.67 µM (inactive)
- GI50 [3]: 1.96 µM (inactive)
- GI50 [4]: 1.17 µM (inactive)
- GI50 [5]: 1.63 µM (inactive)
- GI50 [6]: 2.78 µM (inactive)
- GI50 [7]: 2.26 µM (inactive)
- GI50 [8]: 1.8 µM (inactive)
- GI50 [9]: 2.54 µM (inactive)
- GI50 [10]: 1.61 µM (inactive)
- GI50 [11]: 2.58 µM (inactive)
- GI50 [12]: 1.45 µM (inactive)
- GI50 [13]: 2.16 µM (inactive)
- GI50 [14]: 0.817 µM (active)
- GI50 [15]: 1.47 µM (inactive)
- GI50 [16]: 3.2 µM (inactive)

Compound: N=C(N)N/N=C(/CC1OC(=O)c2ccccc21)c1ccc2ccccc2c1 (stereo unspecified)
- GI50 [1]: 21.6 µM (inactive)
- GI50 [2]: 12.9 µM (inactive)
- GI50 [3]: 17.3 µM (inactive)
- GI50 [4]: 18.9 µM (inactive)
- GI50 [5]: 14.6 µM (inactive)
- GI50 [6]: 17.5 µM (inactive)
- GI50 [7]: 15.8 µM (inactive)
- GI50 [8]: 26.2 µM (inactive)
- GI50 [9]: 21.9 µM (inactive)
- GI50 [10]: 19.6 µM (inactive)
- GI50 [11]: 24.3 µM (inactive)
- GI50 [12]: 13.2 µM (inactive)
- GI50 [13]: 22 µM (inactive)
- GI50 [15]: 22.1 µM (inactive)
- GI50 [17]: 17.1 µM (inactive)
- GI50 [16]: 20 µM (inactive)

Compound: CCOC(=O)/C(=C\c1ccccc1)C(=O)O
- GI50 [1]: > 100 µM (inactive)
- GI50 [2]: > 100 µM (inactive)
- GI50 [3]: > 100 µM (inactive)
- GI50 [4]: > 100 µM (inactive)
- GI50 [5]: > 100 µM (inactive)
- GI50 [6]: > 100 µM (inactive)
- GI50 [7]: > 100 µM (inactive)
- GI50 [8]: > 100 µM (inactive)
- GI50 [9]: > 100 µM (inactive)
- GI50 [10]: > 100 µM (inactive)
- GI50 [11]: > 100 µM (inactive)
- GI50 [12]: > 100 µM (inactive)
- GI50 [13]: > 100 µM (inactive)
- GI50 [14]: > 100 µM (inactive)
- GI50 [15]: > 100 µM (inactive)
- GI50 [17]: > 100 µM (inactive)

Compound: CC1=C[C@H]2c3c([nH]c4ccccc34)C(c3c[nH]c4ccccc34)[C@H]2CC1 (stereo partly specified)
- GI50 [1]: 4.33 µM (inactive)
- GI50 [3]: 3.48 µM (inactive)
- GI50 [4]: 10.2 µM (inactive)
- GI50 [5]: 4.55 µM (inactive)
- GI50 [7]: 8.59 µM (inactive)
- GI50 [8]: 3.33 µM (inactive)
- GI50 [9]: 3.3 µM (inactive)
- GI50 [10]: 3.75 µM (inactive)
- GI50 [11]: 3.75 µM (inactive)
- GI50 [12]: 12.9 µM (inactive)
- GI50 [13]: 0.536 µM (active)
- GI50 [14]: 10.1 µM (inactive)
- GI50 [15]: 7.96 µM (inactive)
- GI50 [17]: 3.24 µM (inactive)
- GI50 [16]: 6.44 µM (inactive)

Compound: CCC12C=CCN3CC[C@]4(C(=C(C(=O)OC)[C@@H]1Nc1ccn(C5OC(COC(C)=O)C(OC(C)=O)C5OC(C)=O)c(=O)n1)Nc1ccccc14)C32 (stereo partly specified)
- GI50 [1]: 4.28 µM (inactive)
- GI50 [2]: 1.32 µM (inactive)
- GI50 [3]: 4.3 µM (inactive)
- GI50 [4]: 4.43 µM (inactive)
- GI50 [5]: 4.27 µM (inactive)
- GI50 [6]: 4.37 µM (inactive)
- GI50 [7]: 5.16 µM (inactive)
- GI50 [8]: 1.62 µM (inactive)
- GI50 [9]: 4.8 µM (inactive)
- GI50 [10]: 4.39 µM (inactive)
- GI50 [11]: 5.08 µM (inactive)
- GI50 [12]: 5 µM (inactive)
- GI50 [13]: 4.31 µM (inactive)
- GI50 [14]: 5.9 µM (inactive)
- GI50 [15]: 5.25 µM (inactive)
- GI50 [17]: 5.46 µM (inactive)
- GI50 [16]: 3.95 µM (inactive)
